Biological target: T1, human MMP-9 (Homo sapiens, UniProt P14780)
T1 construct: purchased R&D Systems, Minneapolis
T1 sequence (P14780 94-707): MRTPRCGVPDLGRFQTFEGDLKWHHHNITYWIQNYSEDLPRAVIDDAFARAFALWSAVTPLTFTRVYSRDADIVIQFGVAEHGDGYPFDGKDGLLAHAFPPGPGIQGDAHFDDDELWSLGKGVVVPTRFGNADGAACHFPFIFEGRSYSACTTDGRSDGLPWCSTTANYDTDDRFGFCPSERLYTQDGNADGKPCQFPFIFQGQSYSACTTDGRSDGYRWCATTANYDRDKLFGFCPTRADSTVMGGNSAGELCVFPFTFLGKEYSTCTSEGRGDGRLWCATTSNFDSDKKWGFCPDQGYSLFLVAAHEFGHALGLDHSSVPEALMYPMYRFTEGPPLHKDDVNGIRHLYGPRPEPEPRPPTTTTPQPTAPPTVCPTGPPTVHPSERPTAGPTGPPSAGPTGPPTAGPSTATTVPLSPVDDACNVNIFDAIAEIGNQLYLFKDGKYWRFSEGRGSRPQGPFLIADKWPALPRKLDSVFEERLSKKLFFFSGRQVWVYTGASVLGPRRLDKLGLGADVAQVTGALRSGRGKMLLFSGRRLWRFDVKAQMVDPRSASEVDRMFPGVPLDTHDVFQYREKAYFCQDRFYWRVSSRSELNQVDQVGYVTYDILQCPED
Assay: Determination of MMP inhibitory potency, MMP-9
Format: biochemical
Conditions: read-out: IC50 (μM) on MMP-9
Experimental: (§1) Recombinant enzymes, human MMP-1, MMP-2, MMP-3, MMP-8, MMP-9, MMP-12, MMP-13 and TACE (R&D Systems, Minneapolis) were incubated at four different concentrations with the relevant colorimetric or fluorescent peptide substrates (R&D Systems, Minneapolis) for 3 h. The tested compounds were added at four to six different concentrations and the inhibitory potencies expressed in a colorimetric change, was measured by an ELISA or fluorimeter.
O=C(NCCCCCCNS(=O)(=O)c1ccc(Oc2ccccc2)cc1)P(=O)(O)O [Compound 5, 1-[4-Phenoxybenzenesulfonamido]-6-[phosphonoformamido]hexane] showed an IC50 greater than 100 µM. For O=C(NCCCCCCCNS(=O)(=O)c1ccc(Oc2ccccc2)cc1)P(=O)(O)O [Compound 6], the IC50 was greater than 100 µM. O=C(NCCCCCCCCNS(=O)(=O)c1ccc(Oc2ccccc2)cc1)P(=O)(O)O [Compound 7] showed an IC50 greater than 100 µM.

Biological target: T2, human MMP-12 (Homo sapiens, UniProt P39900)
T2 construct: purchased R&D Systems, Minneapolis
T2 sequence (P39900 106-470): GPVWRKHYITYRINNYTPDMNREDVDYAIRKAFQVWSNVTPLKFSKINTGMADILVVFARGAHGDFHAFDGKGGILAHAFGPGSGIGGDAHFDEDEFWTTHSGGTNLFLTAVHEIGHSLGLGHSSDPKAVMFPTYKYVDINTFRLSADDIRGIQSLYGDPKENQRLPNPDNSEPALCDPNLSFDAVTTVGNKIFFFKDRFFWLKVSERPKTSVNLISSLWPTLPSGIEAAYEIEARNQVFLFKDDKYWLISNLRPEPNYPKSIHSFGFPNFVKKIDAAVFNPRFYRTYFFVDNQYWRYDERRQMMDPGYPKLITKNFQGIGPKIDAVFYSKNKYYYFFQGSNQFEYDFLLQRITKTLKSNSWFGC
Assay: Determination of MMP inhibitory potency, MMP-12
Format: biochemical
Conditions: read-out: IC50 (μM) on MMP-12
Experimental: as §1
With O=C(NCCCCCCNS(=O)(=O)c1ccc(Oc2ccccc2)cc1)P(=O)(O)O [Compound 5, 1-[4-Phenoxybenzenesulfonamido]-6-[phosphonoformamido]hexane] the IC50 was greater than 100 µM. For O=C(NCCCCCCCNS(=O)(=O)c1ccc(Oc2ccccc2)cc1)P(=O)(O)O [Compound 6], the IC50 was greater than 100 µM. Compound O=C(NCCCCCCCCNS(=O)(=O)c1ccc(Oc2ccccc2)cc1)P(=O)(O)O [Compound 7] has an IC50 greater than 100 µM.

Test system: B16F10 tumor cells
Assay: Murine melanoma model of experimental metastasis
Format: in vivo, C57B1 mice
Conditions: Intraperitoneal, 25 mg/kg, daily for three weeks, B16F10 cells i.v.
Experimental: Experimental metastasis was studied in the murine melanoma model. In this model, B16F10 tumor cells (50 k) were injected into the tail vein of C57B1 6 week old female mice. After 21 days, the metastases formed on the lungs of the mice were counted after appropriate fixation. […] One group received the inhibitor intraperitoneally and the other group orally, dissolved in PBS. Mice were monitored for toxic symptoms at alternate days.
In the case of O=C(NCCCCCCNS(=O)(=O)c1ccc(Oc2ccccc2)cc1)P(=O)(O)O [Compound 5, 1-[4-Phenoxybenzenesulfonamido]-6-[phosphonoformamido]hexane], the “% reduction in lung metastases relative to control” value is reported as 90%.

Same assay, conditions: Per-oral, 50 mg/kg, daily for three weeks, B16F10 cells i.v.
With O=C(NCCCCCCNS(=O)(=O)c1ccc(Oc2ccccc2)cc1)P(=O)(O)O [Compound 5, 1-[4-Phenoxybenzenesulfonamido]-6-[phosphonoformamido]hexane] the “% reduction in lung metastases relative to control” value was 50%.

Same assay, conditions: Per-oral, 150 mg/kg, daily for three weeks, B16F10 cells i.v.
With O=C(NCCCCCCNS(=O)(=O)c1ccc(Oc2ccccc2)cc1)P(=O)(O)O [Compound 5, 1-[4-Phenoxybenzenesulfonamido]-6-[phosphonoformamido]hexane] the “% reduction in lung metastases relative to control” value was 86%.

Biological target: T3, human MMP-8 (Homo sapiens, UniProt P22894)
T3 construct: purchased R&D Systems, Minneapolis
T3 sequence (P22894 101-467): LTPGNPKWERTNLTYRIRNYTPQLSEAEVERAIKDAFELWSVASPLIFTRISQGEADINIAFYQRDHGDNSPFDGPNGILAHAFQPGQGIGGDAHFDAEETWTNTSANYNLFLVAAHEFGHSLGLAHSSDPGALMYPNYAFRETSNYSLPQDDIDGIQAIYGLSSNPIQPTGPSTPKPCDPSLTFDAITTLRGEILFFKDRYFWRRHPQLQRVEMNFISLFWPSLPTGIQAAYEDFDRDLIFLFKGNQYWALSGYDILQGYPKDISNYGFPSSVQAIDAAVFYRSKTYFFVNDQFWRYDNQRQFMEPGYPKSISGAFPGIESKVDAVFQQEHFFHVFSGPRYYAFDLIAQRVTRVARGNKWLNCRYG
Assay: Determination of MMP inhibitory potency, MMP-8
Format: biochemical
Conditions: read-out: IC50 (μM) on MMP-8
Experimental: as §1
For O=C(NCCCCCCNS(=O)(=O)c1ccc(Oc2ccccc2)cc1)P(=O)(O)O [Compound 5, 1-[4-Phenoxybenzenesulfonamido]-6-[phosphonoformamido]hexane], the IC50 was greater than 100 µM. O=C(NCCCCCCCNS(=O)(=O)c1ccc(Oc2ccccc2)cc1)P(=O)(O)O [Compound 6] gave an IC50 greater than 100 µM. Compound O=C(NCCCCCCCCNS(=O)(=O)c1ccc(Oc2ccccc2)cc1)P(=O)(O)O [Compound 7] has an IC50 greater than 100 µM.

Biological target: T4, MMP-2 (Homo sapiens, UniProt P08253)
T4 sequence (P08253 110-660): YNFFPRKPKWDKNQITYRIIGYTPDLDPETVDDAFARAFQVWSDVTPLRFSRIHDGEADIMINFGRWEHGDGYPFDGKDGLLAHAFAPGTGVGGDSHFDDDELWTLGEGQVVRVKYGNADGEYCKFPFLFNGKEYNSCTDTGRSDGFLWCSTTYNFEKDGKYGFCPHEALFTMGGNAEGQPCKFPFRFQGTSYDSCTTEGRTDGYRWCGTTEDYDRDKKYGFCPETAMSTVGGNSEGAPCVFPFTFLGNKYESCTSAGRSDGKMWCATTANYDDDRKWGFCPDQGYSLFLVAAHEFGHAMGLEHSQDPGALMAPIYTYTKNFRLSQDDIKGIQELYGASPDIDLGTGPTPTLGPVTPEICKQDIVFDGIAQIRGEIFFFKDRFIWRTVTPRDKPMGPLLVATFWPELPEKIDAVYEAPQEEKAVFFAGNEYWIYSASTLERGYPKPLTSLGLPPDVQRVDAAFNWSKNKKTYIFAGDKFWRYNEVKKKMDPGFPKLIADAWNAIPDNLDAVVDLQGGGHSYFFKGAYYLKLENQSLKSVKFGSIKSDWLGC
Assay: Determination of MMP inhibitory potency, MMP-2
Format: biochemical
Design: purchased R&D Systems, Minneapolis
Conditions: read-out: IC50 (μM) on MMP-2
Experimental: as §1
O=C(NCCCCCCNS(=O)(=O)c1ccc(Oc2ccccc2)cc1)P(=O)(O)O [Compound 5, 1-[4-Phenoxybenzenesulfonamido]-6-[phosphonoformamido]hexane] gave an IC50 of 5 µM. With O=C(NCCCCCCCNS(=O)(=O)c1ccc(Oc2ccccc2)cc1)P(=O)(O)O [Compound 6] the IC50 was greater than 100 µM. For O=C(NCCCCCCCCNS(=O)(=O)c1ccc(Oc2ccccc2)cc1)P(=O)(O)O [Compound 7], the IC50 was greater than 100 µM.

Test system: MMP and/or ADAM enzyme
Assay: Duration of inhibitory effect on the enzymes inhibited
Format: biochemical, human
Conditions: not given
Experimental: Previously, it has been established that cis-2-aminocyclohexycarbamoyl phosphonic acid (cis-ACCP), listed for the purpose of comparison in Tables 2 and 3 as “control”, was an effective nontoxic, in vivo active antimetastatic compound. […] In the study leading to the subject invention, it was determined that the inhibitory effect could be, and in fact was prolonged by substituting carbamoylphosphonic functionality with aromatic ring functionality as in the compounds of the invention. […]
as §1
With O=C(NCCCCCCCNS(=O)(=O)c1ccc(Oc2ccccc2)cc1)P(=O)(O)O [Compound 6] the “Duration of inhibitory effect” value was greater than 180 min. In the case of O=C(NCCCCCCCCNS(=O)(=O)c1ccc(Oc2ccccc2)cc1)P(=O)(O)O [Compound 7], the “Duration of inhibitory effect” value is reported as greater than 180 min.

Test system: not given
Assay: not given
Conditions: mouse, in vivo
In the case of O=C(NCCCCCCNS(=O)(=O)c1ccc(Oc2ccccc2)cc1)P(=O)(O)O [Compound 5, 1-[4-Phenoxybenzenesulfonamido]-6-[phosphonoformamido]hexane], the “toxic effects in mice” value is reported as “without any toxic effects” and the “toxicity in mice (text, FIG. 5)” value is reported as “toxic”.

Same assay, conditions: mouse, in vivo, ip, 50 mg/kg
For O=C(NCCCCCCNS(=O)(=O)c1ccc(Oc2ccccc2)cc1)P(=O)(O)O [Compound 5, 1-[4-Phenoxybenzenesulfonamido]-6-[phosphonoformamido]hexane], the “Toxicity in mice (Table 4)” value was “Toxic”.

Biological target: T5, human MMP-13 (Homo sapiens, UniProt P45452)
T5 construct: purchased R&D Systems, Minneapolis
Assay: Determination of MMP inhibitory potency, MMP-13
Format: biochemical
Conditions: read-out: IC50 (μM) on MMP-13
Experimental: as §1
In the case of O=C(NCCCCCCNS(=O)(=O)c1ccc(Oc2ccccc2)cc1)P(=O)(O)O [Compound 5, 1-[4-Phenoxybenzenesulfonamido]-6-[phosphonoformamido]hexane], the IC50 is reported as 80 µM. Work on O=C(NCCCCCCCNS(=O)(=O)c1ccc(Oc2ccccc2)cc1)P(=O)(O)O [Compound 6] yielded an IC50 greater than 100 µM. O=C(NCCCCCCCCNS(=O)(=O)c1ccc(Oc2ccccc2)cc1)P(=O)(O)O [Compound 7] showed an IC50 greater than 100 µM.

Test system: tumor invasion
Assay: In vitro model of tumor invasion (Boyden chamber, reconstituted basement membrane)
Format: cell-based
Conditions: read-out: % Invasion-Inhibition by 50 μM drug
Experimental: The compound was also evaluated in an in vivo experimental model of metastasis using B16F10 tumor cells in C57B1 mice. […] The assay was carried out in a Boyden chamber with a reconstituted basement membrane (Matrigal).
In the case of O=C(NCCCCCCNS(=O)(=O)c1ccc(Oc2ccccc2)cc1)P(=O)(O)O [Compound 5, 1-[4-Phenoxybenzenesulfonamido]-6-[phosphonoformamido]hexane], the inhibition at 50 µM is reported as 77%.

Biological target: T6, human MMP-3 (Homo sapiens, UniProt P08254)
T6 construct: purchased R&D Systems, Minneapolis
T6 sequence (P08254 100-477): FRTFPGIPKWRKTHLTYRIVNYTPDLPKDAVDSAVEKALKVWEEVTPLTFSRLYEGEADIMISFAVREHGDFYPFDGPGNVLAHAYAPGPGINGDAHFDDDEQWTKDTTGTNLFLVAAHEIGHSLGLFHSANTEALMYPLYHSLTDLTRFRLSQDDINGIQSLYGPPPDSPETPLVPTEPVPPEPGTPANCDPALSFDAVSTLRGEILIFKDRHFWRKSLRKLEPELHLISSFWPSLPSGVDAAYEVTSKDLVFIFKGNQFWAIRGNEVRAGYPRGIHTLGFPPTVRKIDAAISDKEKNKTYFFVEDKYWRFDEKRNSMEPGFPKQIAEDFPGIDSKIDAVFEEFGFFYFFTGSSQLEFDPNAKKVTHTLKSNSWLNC
Assay: Determination of MMP inhibitory potency, MMP-3
Format: biochemical
Conditions: read-out: IC50 (μM) on MMP-3
Experimental: as §1
Work on O=C(NCCCCCCNS(=O)(=O)c1ccc(Oc2ccccc2)cc1)P(=O)(O)O [Compound 5, 1-[4-Phenoxybenzenesulfonamido]-6-[phosphonoformamido]hexane] yielded an IC50 greater than 100 µM. Compound O=C(NCCCCCCCNS(=O)(=O)c1ccc(Oc2ccccc2)cc1)P(=O)(O)O [Compound 6] has an IC50 greater than 100 µM. O=C(NCCCCCCCCNS(=O)(=O)c1ccc(Oc2ccccc2)cc1)P(=O)(O)O [Compound 7] gave an IC50 greater than 100 µM.

Biological target: T7, TACE (Homo sapiens, UniProt P78536)
T7 construct: purchased R&D Systems, Minneapolis
T7 sequence (P78536 215-824): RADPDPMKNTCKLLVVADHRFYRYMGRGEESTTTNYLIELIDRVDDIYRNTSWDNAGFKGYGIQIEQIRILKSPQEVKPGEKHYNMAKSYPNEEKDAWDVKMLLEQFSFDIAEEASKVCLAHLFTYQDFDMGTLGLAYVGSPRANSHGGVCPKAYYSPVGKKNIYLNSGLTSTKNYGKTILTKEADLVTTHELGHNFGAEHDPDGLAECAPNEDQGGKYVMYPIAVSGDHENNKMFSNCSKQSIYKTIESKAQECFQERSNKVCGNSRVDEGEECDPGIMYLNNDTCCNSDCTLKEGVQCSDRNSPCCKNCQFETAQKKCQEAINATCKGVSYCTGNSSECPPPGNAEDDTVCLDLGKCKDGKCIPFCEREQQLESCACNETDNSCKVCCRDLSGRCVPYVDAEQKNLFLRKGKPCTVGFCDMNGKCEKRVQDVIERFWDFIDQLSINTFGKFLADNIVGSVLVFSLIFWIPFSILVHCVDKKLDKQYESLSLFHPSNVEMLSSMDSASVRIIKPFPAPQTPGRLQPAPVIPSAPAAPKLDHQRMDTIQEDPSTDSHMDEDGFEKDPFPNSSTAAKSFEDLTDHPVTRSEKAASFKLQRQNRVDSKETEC
Assay: Determination of inhibitory potency, TACE
Format: biochemical
Conditions: read-out: IC50 (μM) on TACE
Experimental: as §1
O=C(NCCCCCCNS(=O)(=O)c1ccc(Oc2ccccc2)cc1)P(=O)(O)O [Compound 5, 1-[4-Phenoxybenzenesulfonamido]-6-[phosphonoformamido]hexane] showed an IC50 of 20 µM. Compound O=C(NCCCCCCCNS(=O)(=O)c1ccc(Oc2ccccc2)cc1)P(=O)(O)O [Compound 6] has an IC50 of 22 µM. O=C(NCCCCCCCCNS(=O)(=O)c1ccc(Oc2ccccc2)cc1)P(=O)(O)O [Compound 7] showed an IC50 of 17 µM.

Reference: patent US8993544B2, “Carbamoylphosphonates as inhibitors and uses thereof” (priority 2009, dated 2015)
